Assay results: ChEMBL document CHEMBL4402510, “Caprazamycins: Promising lead structures acting on a novel antibacterial target MraY” (Eur J Med Chem, 2019)
Converted amounts (≈) assume the structure as drawn.

Tests used:
Enterococcus faecalis [1] = experiment: Antibacterial activity against Enterococcus faecalis ATCC 29212; assay type: functional
Enterococcus faecalis [2] = experiment: Antibacterial activity against Enterococcus faecalis SR7914 (VRE); assay type: functional
Staphylococcus aureus [3] = experiment: Antibacterial activity against methicillin susceptible Staphylococcus aureus ATCC 29213; assay type: functional
Staphylococcus aureus [4] = experiment: Antibacterial activity against methicillin resistant Staphylococcus aureus SR3637; assay type: functional
Enterococcus faecium = experiment: Antibacterial activity against Enterococcus faecium SR7917 (VRE); assay type: functional
[5] = target: T1, Phospho-N-acetylmuramoyl-pentapeptide-transferase (Bacillus subtilis (strain 168), UniProt Q03521); experiment: Inhibition of MraY in Bacillus subtilis
T1 sequence (Q03521 whole entry): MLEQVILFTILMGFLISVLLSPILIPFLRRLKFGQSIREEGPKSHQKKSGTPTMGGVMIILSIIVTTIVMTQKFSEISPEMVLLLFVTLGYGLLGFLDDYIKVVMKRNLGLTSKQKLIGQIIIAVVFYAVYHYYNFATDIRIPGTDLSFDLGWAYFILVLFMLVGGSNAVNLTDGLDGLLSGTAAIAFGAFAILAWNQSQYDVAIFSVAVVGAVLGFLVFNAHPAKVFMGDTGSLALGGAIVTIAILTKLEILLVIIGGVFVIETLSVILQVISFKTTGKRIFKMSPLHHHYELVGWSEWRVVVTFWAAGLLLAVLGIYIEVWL

[6] = target: T2, Phospho-N-acetylmuramoyl-pentapeptide-transferase (Aquifex aeolicus (strain VF5), UniProt O66465); experiment: Inhibition of MraY in Aquifex aeolicus
T2 sequence (O66465 whole entry): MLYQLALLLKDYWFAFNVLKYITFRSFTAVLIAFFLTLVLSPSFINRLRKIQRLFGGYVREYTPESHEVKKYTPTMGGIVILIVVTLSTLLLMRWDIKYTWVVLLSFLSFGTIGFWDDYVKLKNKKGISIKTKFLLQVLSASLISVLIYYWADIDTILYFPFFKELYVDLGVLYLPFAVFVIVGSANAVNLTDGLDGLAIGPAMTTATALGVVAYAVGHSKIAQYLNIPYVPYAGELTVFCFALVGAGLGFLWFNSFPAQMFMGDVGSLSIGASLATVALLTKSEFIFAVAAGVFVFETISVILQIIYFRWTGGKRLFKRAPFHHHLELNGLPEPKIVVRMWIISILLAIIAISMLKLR

Escherichia coli = experiment: Antibacterial activity against Escherichia coli expressing MraY; assay type: functional, organism-based

CCCCCCCCCCCCCCC[C@H](NC(=O)[C@@H](N)CCCNC(=N)N)C(=O)NC[C@@H]1CC2[C@H](C(=O)N1)[C@@H]([C@H]1O[C@@H](n3ccc(=O)[nH]c3=O)[C@H](O)[C@@H]1O)ON2CCCN (single isomer, unassigned)
MIC (Enterococcus faecalis [1]): 32 µg/mL (≈ 37 µM)
MIC (Enterococcus faecalis [2]): 32 µg/mL (≈ 37 µM)
MIC (Staphylococcus aureus [3]): > 64 µg/mL
MIC (Staphylococcus aureus [4]): 32 µg/mL (≈ 37 µM)
MIC (Enterococcus faecium): 16 µg/mL (≈ 18.5 µM)

NC[C@H]1O[C@@H](O[C@@H](c2cn(CCCCCCCCCCOc3ccc(C(=O)c4ccccc4)cc3)nn2)[C@H]2O[C@@H](n3ccc(=O)[nH]c3=O)[C@H](O)[C@@H]2O)[C@H](O)[C@@H]1O
IC50 [5]: 125 µM

NC[C@H]1O[C@@H](O[C@@H](c2cn(CCCCCO)nn2)[C@H]2O[C@@H](n3ccc(=O)[nH]c3=O)[C@H](O)[C@@H]2O)[C@H](O)[C@@H]1O
IC50 [5]: > 1000 µM

NC[C@H]1O[C@@H](O[C@@H](Cn2cc(CCOCCOCCOCCOCCO)nn2)[C@H]2O[C@@H](n3ccc(=O)[nH]c3=O)[C@H](O)[C@@H]2O)[C@H](O)[C@@H]1O
IC50 [6]: 450 µM

NC[C@H]1O[C@@H](O[C@@H](c2cn(CCCOc3ccc(C(=O)c4ccccc4)cc3)nn2)[C@H]2O[C@@H](n3ccc(=O)[nH]c3=O)[C@H](O)[C@@H]2O)[C@H](O)[C@@H]1O
IC50 [5]: 100 µM

CCCCCCCCCCn1cc([C@H](O[C@@H]2O[C@H](CN)[C@@H](O)[C@H]2O)[C@H]2O[C@@H](n3ccc(=O)[nH]c3=O)[C@H](O)[C@@H]2O)nn1
IC50 [5]: 140 µM

NCCCCCCCCCn1cc(C[C@H](O[C@@H]2O[C@H](CN)[C@@H](O)[C@H]2O)[C@H]2O[C@@H](n3ccc(=O)[nH]c3=O)[C@H](O)[C@@H]2O)nn1
IC50 [6]: 200 µM

NC[C@H]1O[C@@H](O[C@@H](Cn2cc(CCCCCO)nn2)[C@H]2O[C@@H](n3ccc(=O)[nH]c3=O)[C@H](O)[C@@H]2O)[C@H](O)[C@@H]1O
IC50 [6]: 400 µM

O=c1ccn([C@@H]2O[C@H](CO[C@@H]3O[C@H](CO)[C@@H](O)[C@H]3O)[C@@H](O)[C@H]2O)c(=O)[nH]1
IC50 (Escherichia coli): > 1000 µM

NC[C@H]1O[C@@H](O[C@@H](c2cn(CCCn3ccnc3)nn2)[C@H]2O[C@@H](n3ccc(=O)[nH]c3=O)[C@H](O)[C@@H]2O)[C@H](O)[C@@H]1O
IC50 [5]: > 1000 µM

CC(=O)NC[C@H]1O[C@@H](OC[C@H]2O[C@@H](n3ccc(=O)[nH]c3=O)[C@H](O)[C@@H]2O)[C@H](O)[C@@H]1O
IC50 (Escherichia coli): > 1000 µM

NC[C@H]1O[C@@H](O[C@@H](c2cn(CCCCCOc3ccc(C(=O)c4ccccc4)cc3)nn2)[C@H]2O[C@@H](n3ccc(=O)[nH]c3=O)[C@H](O)[C@@H]2O)[C@H](O)[C@@H]1O
IC50 [5]: 100 µM

NC[C@H]1O[C@@H](O[C@@H](Cn2cc(Cc3ccc(COc4ccc(C(=O)c5ccccc5)cc4)cc3)nn2)[C@H]2O[C@@H](n3ccc(=O)[nH]c3=O)[C@H](O)[C@@H]2O)[C@H](O)[C@@H]1O
IC50 [6]: 100 µM

NC[C@H]1O[C@@H](OC[C@@H]2CC[C@H](n3ccc(=O)[nH]c3=O)O2)[C@H](O)[C@@H]1O
IC50 (Escherichia coli): 120 µM

NC[C@H]1O[C@@H](O[C@@H](c2cn(C3CCCCCC3)nn2)[C@H]2O[C@@H](n3ccc(=O)[nH]c3=O)[C@H](O)[C@@H]2O)[C@H](O)[C@@H]1O
IC50 [5]: > 1000 µM

NC[C@H]1O[C@@H](O[C@@H](Cc2cn(CCCCCCCCCCOc3ccc(C(=O)c4ccccc4)cc3)nn2)[C@H]2O[C@@H](n3ccc(=O)[nH]c3=O)[C@H](O)[C@@H]2O)[C@H](O)[C@@H]1O
IC50 [6]: 25 µM

NC[C@H]1O[C@@H](O[C@@H](Cn2cc(CCCCCCCCCCO)nn2)[C@H]2O[C@@H](n3ccc(=O)[nH]c3=O)[C@H](O)[C@@H]2O)[C@H](O)[C@@H]1O
IC50 [6]: 75 µM

N=C(N)NC[C@H]1O[C@@H](OC[C@H]2O[C@@H](n3ccc(=O)[nH]c3=O)[C@H](O)[C@@H]2O)[C@H](O)[C@@H]1O
IC50 (Escherichia coli): 25 µM

C#C[C@H](O[C@@H]1O[C@H](CN)[C@@H](O)[C@H]1O)[C@H]1O[C@@H](n2ccc(=O)[nH]c2=O)[C@H](O)[C@@H]1O
IC50 [5]: 100 µM

O=CNC[C@H]1O[C@@H](OC[C@H]2O[C@@H](n3ccc(=O)[nH]c3=O)[C@H](O)[C@@H]2O)[C@H](O)[C@@H]1O
IC50 (Escherichia coli): > 1000 µM

CCCCCCCCCCCCCCC[C@H](NC(=O)[C@@H](N)CCCNC(=N)N)C(=O)NC[C@@H]1CC[C@H]2C(C(=O)N1)[C@H]([C@H]1O[C@@H](n3ccc(=O)[nH]c3=O)[C@H](O)[C@@H]1O)ON2CCCN (single isomer, unassigned)
MIC (Enterococcus faecalis [1]): 16 µg/mL (≈ 18.2 µM)
MIC (Enterococcus faecalis [2]): 16 µg/mL (≈ 18.2 µM)
MIC (Staphylococcus aureus [3]): 16 µg/mL (≈ 18.2 µM)
MIC (Staphylococcus aureus [4]): 32 µg/mL (≈ 36.4 µM)
MIC (Enterococcus faecium): 8 µg/mL (≈ 9.11 µM)

CCCNC[C@H]1O[C@@H](OC[C@H]2O[C@@H](n3ccc(=O)[nH]c3=O)[C@H](O)[C@@H]2O)[C@H](O)[C@@H]1O
IC50 (Escherichia coli): 140 µM

NC[C@H]1O[C@@H](OC[C@H]2O[C@@H](n3ccc(=O)[nH]c3=O)[C@H](O)[C@@H]2O)C[C@@H]1O
IC50 (Escherichia coli): 115 µM

CCCCCCCCCCCCCCCC(=O)NC[C@@H]1CC2[C@H](C(=O)N1CCCNC(=N)N)[C@@H]([C@H]1O[C@@H](n3ccc(=O)[nH]c3=O)[C@H](O)[C@@H]1O)ON2CCCN (single isomer, unassigned)
MIC (Enterococcus faecalis [1]): 16 µg/mL (≈ 20.6 µM)
MIC (Enterococcus faecalis [2]): 16 µg/mL (≈ 20.6 µM)
MIC (Staphylococcus aureus [3]): 16 µg/mL (≈ 20.6 µM)
MIC (Staphylococcus aureus [4]): 16 µg/mL (≈ 20.6 µM)
MIC (Enterococcus faecium): 8 µg/mL (≈ 10.3 µM)

CCCCCCCCCCCCCCCC(=O)NC[C@@H]1CC[C@H]2C(C(=O)N1CCCNC(=N)N)[C@H]([C@H]1O[C@@H](n3ccc(=O)[nH]c3=O)[C@H](O)[C@@H]1O)ON2CCCN (single isomer, unassigned)
MIC (Enterococcus faecalis [1]): 16 µg/mL (≈ 20.2 µM)
MIC (Enterococcus faecalis [2]): 16 µg/mL (≈ 20.2 µM)
MIC (Staphylococcus aureus [3]): > 64 µg/mL
MIC (Staphylococcus aureus [4]): 16 µg/mL (≈ 20.2 µM)
MIC (Enterococcus faecium): 16 µg/mL (≈ 20.2 µM)

NC[C@H]1O[C@@H](O[C@@H](Cc2cn(CCCCCCCCCCO)nn2)[C@H]2O[C@@H](n3ccc(=O)[nH]c3=O)[C@H](O)[C@@H]2O)[C@H](O)[C@@H]1O
IC50 [6]: 40 µM

NC[C@H]1O[C@@H](O[C@H](CO)[C@H]2O[C@@H](n3ccc(=O)[nH]c3=O)[C@H](O)[C@@H]2O)[C@H](O)[C@@H]1O
IC50 (Escherichia coli): 425 µM

NCCCCCCCCCc1cn(C[C@H](O[C@@H]2O[C@H](CN)[C@@H](O)[C@H]2O)[C@H]2O[C@@H](n3ccc(=O)[nH]c3=O)[C@H](O)[C@@H]2O)nn1
IC50 [6]: 250 µM

N/C=N/C[C@H]1O[C@@H](OC[C@H]2O[C@@H](n3ccc(=O)[nH]c3=O)[C@H](O)[C@@H]2O)[C@H](O)[C@@H]1O
IC50 (Escherichia coli): 30 µM

CC(C)NC[C@H]1O[C@@H](OC[C@H]2O[C@@H](n3ccc(=O)[nH]c3=O)[C@H](O)[C@@H]2O)[C@H](O)[C@@H]1O
IC50 (Escherichia coli): 180 µM

CCCCCCNC[C@H]1O[C@@H](OC[C@H]2O[C@@H](n3ccc(=O)[nH]c3=O)[C@H](O)[C@@H]2O)[C@H](O)[C@@H]1O
IC50 (Escherichia coli): 130 µM

CCNC[C@H]1O[C@@H](OC[C@H]2O[C@@H](n3ccc(=O)[nH]c3=O)[C@H](O)[C@@H]2O)[C@H](O)[C@@H]1O
IC50 (Escherichia coli): 150 µM

NC[C@H]1O[C@@H](O[C@@H](Cc2cn(CCOCCOCCOCCOCCO)nn2)[C@H]2O[C@@H](n3ccc(=O)[nH]c3=O)[C@H](O)[C@@H]2O)[C@H](O)[C@@H]1O
IC50 [6]: 750 µM

CNC[C@H]1O[C@@H](OC[C@H]2O[C@@H](n3ccc(=O)[nH]c3=O)[C@H](O)[C@@H]2O)[C@H](O)[C@@H]1O
IC50 (Escherichia coli): 45 µM

C[N+](C)(C)C[C@H]1O[C@@H](OC[C@H]2O[C@@H](n3ccc(=O)[nH]c3=O)[C@H](O)[C@@H]2O)[C@H](O)[C@@H]1O
IC50 (Escherichia coli): > 1000 µM

NC[C@H]1O[C@@H](O[C@@H](Cc2cn(CCCCCO)nn2)[C@H]2O[C@@H](n3ccc(=O)[nH]c3=O)[C@H](O)[C@@H]2O)[C@H](O)[C@@H]1O
IC50 [6]: 400 µM

CCCCCCCCCCCCCCC[C@H](NC(=O)[C@@H](N)CCCNC(=N)N)C(=O)NC[C@@H]1CC2[C@@H](C(=O)N1)[C@H]([C@H]1O[C@@H](n3ccc(=O)[nH]c3=O)[C@H](O)[C@@H]1O)ON2CCCN (single isomer, unassigned)
MIC (Enterococcus faecalis [1]): 16 µg/mL (≈ 18.5 µM)
MIC (Enterococcus faecalis [2]): 32 µg/mL (≈ 37 µM)
MIC (Staphylococcus aureus [3]): > 64 µg/mL
MIC (Staphylococcus aureus [4]): 32 µg/mL (≈ 37 µM)
MIC (Enterococcus faecium): 16 µg/mL (≈ 18.5 µM)

CCCCCCCCCCCCCCCC(=O)O[C@H]1CN(C)[C@@H]([C@@H](C)O[C@@H]2O[C@H](CN)[C@@H](O)[C@H]2O)C(=O)N(C)[C@@H]1C(=O)O
MIC50 (Escherichia coli): > 100 µg/mL

NC[C@H]1O[C@@H](OC[C@@H]2C[C@@H](O)[C@H](n3ccc(=O)[nH]c3=O)O2)[C@H](O)[C@@H]1O
IC50 (Escherichia coli): 10 µM
